The structures appear in SMILES notation. “And” between values parts separate entries of the source, which are not always exact repeats. Identical values can stand only once.

The subject of assay [1] is cells of normals and HIV + patients. Description: Substrate panel in cells of normals and HIV+ patients, possible TB infection (Table 4). Type of assay: cell-based, human. The protocol: A panel of assay compounds are assembled consisting of Ala-aminopeptidase and Lys-aminopeptidase, Dipeptidyl peptidase IV (Ala-Ala)2 rhodamine 110 and Cathepsin D to indicate possible TB infection in AIDS related cases.
A panel of enzymatic substrates is performed consisting of Ala-aminopeptidase and Lys-aminopeptidase, Dipeptidyl peptidase IV (Ala-Ala)2 rhodamine 110 and Cathepsin D to indicate possible TB infection in AIDS related cases.

Another assay deals with amino peptidase. Description: Aminopeptidase activity in acute lympholytic Ficoll prepared lymphocytes. Type of assay: cell-based. To be noted: FIG. 4B. The text has this:
The cell's ability to fight off an invader lies within its genetics and therefore cell type. The "readiness" however of any genetically capable group of cells to defend is different. A measure of this "readiness" is manifest in the available proteolytic enzymes contained within vacuoles or on the surface of the cell. The assay compound hydrolysis rate increases with increased mass of enzymes giving a picture of immune competence both in number of cells and activity level. […] Images were generated using Universal Imaging.

A further assay deals with MONOCYTES
In words: Disease to normal ratio of enzyme activity, monocytes (Table 5). Type of assay: cell-based, human. The text has this: (§1) A normal in house adult donor pool was drawn, recording sex and determining that no known disease state was present at the time of sample draw. Criteria for rejecting samples included patients under medication, patients with infection or inflammation of any type, colds and flu as well as any known medical illness such as cancer, heart ailment and high blood pressure. A donor list of 75 patients has been developed and a mean and 2 sd range established. A subgroup of "super normals" was developed from this list by examining the 75 patients to determine which group falls closest to the mean for all enzymes in all cell types tested. These patients were used as the "wellness index" or best group of "normalcy" patients. If a study required the use of children or newborns then this same format was used to develop a data base for these age groups.

Another assay deals with LYMPHOCYTES
In words: Disease to normal ratio of enzyme activity, lymphocytes (Table 5). The class given is cell-based, human.
Description: as §1

Assay [2] in a line: Modulators of sensitivity of rhodamine 110 substrates. Type of assay: cell-based. To be noted: 1 mM. The source says: Modulators are components used to […] the sensitivity of the enzyme for the leaving group. The modulators speed up or slow down the activity of an enzyme by changing the active site. […] Preferred modulators for particular enzymes are included in Table 1.

Assay [3] is described as follows: Effect of sodium chloride on dipeptide reagent. Type of assay: cell-based. Particulars: 7 mM, pH range 6.5 to 8.7. The text has this:
Inhibitors and poisons (or toxins) are components that can be added to reduce the activity of non-targeted enzymes that provide competing reactions for the leaving group. Inhibitors are usually very selective for a particular enzyme. For example, EDTA only works with enzymes requiring Ca^+2, Mg^+2 and some other metals. […] Preferred inhibitors for particular enzymes are included in Table 1.

For the molecule `NC(=O)CC[C@H](N)C(=O)N[C@@H](CO)C(=O)Nc1ccc2c(c1)Oc1cc(NC(=O)[C@H](CO)NC(=O)[C@@H](N)CCC(N)=O)ccc1C21OC(=O)c2ccccc21` (relative stereo) [GLN--SER*], the “MEAN DELTA FL” value in assay [1] (HIV + PATIENTS) is 13.7 and 12.7; in assay [1] (NORMALS), 11.9 and 6.1.

For the molecule `C[C@H](N)C(=O)NCC(=O)Nc1ccc2c(c1)Oc1cc(NC(=O)CNC(=O)[C@H](C)N)ccc1C21OC(=O)c2ccccc21` [ALA--GLY****], the “MEAN DELTA FL” value in assay [1] (HIV + PATIENTS) is on record as 39.9; in assay [1] (HIV + PATIENTS, listed as ALA--GLY*), 29.7; in assay [1] (NORMALS), 48.0; in assay [1] (NORMALS, listed as ALA--GLY*), 31.6.

For `CC(C)C[C@H](N)C(=O)Nc1ccc2c(c1)Oc1cc(NC(=O)[C@@H](N)CC(C)C)ccc1C21OC(=O)c2ccccc21` [LEU, (Leu)2 Rho 110], the enzymatic activity result with amino peptidase is “lost their enzymatic activity”. Also, the “Ratio of disease to normal” value was 1.35 in the assay with MONOCYTES (Dermatomyositis, monocytes); 1.13 in the assay on MONOCYTES (Inflam. Bowel Dis., monocytes section); 1.44 in the assay with MONOCYTES (JRA, monocytes); 44.44 in the assay on MONOCYTES (Lupus, monocytes); 1.36 in the assay with LYMPHOCYTES (Dermatomyositis); 1.34 in the assay with LYMPHOCYTES (Inflam. Bowel Dis.). Moreover, the “Ratio of disease to normal” value in the assay with LYMPHOCYTES (Lupus) came out at 1.93; in the assay with LYMPHOCYTES (Rheumatic Fever), 1.05.

Take `C[C@H](NC(=O)[C@@H](N)CCCCN)C(=O)Nc1ccc2c(c1)Oc1cc(NC(=O)[C@H](C)NC(=O)[C@@H](N)CCCCN)ccc1C21OC(=O)c2ccccc21` [LYS--ALA^2]: the “MEAN DELTA FL” value is on record as 7.9 in assay [1] (HIV + PATIENTS); 121.5 in assay [1] (HIV + PATIENTS, listed as LYS--ALA^1); 7.6 in assay [1] (NORMALS); 112.6 in assay [1] (NORMALS, listed as LYS--ALA^1).

Turning to `O[C@H](CS)[C@@H](O)CS` [dithioerythritol (DTE), dithioerythritol], the “effect on sensitivity of the leaving group for the enzyme” value in assay [2] (Ala-Gly and Leu-Gly substrates) is reported as “does not change the sensitivity”. Besides, the “effect on sensitivity of substituted rhodamine 110 substrates” value in assay [2] (Pro, Gly, Gln-Ser, Val-Lys-Val-Lys, Ala-Ala, Ala-Ala-Ala-Ala substrates) is “decreases the sensitivity”.

With `[Cl-].[Na+]` [sodium chloride], the “inhibitory effect on dipeptide reagent” value in assay [3] is given as “slightly inhibitory effect”.
